Read-outs that look alike come from different tables or passages of the source.
How the values were obtained:
[1] = molecular target: T1, human recombinant serotonin (5-Hydroxytryptamine) 5-HT6 receptor (Homo sapiens, UniProt P50406); assay: Serotonin 5-HT6 radioligand binding ([3H]LSD); parameters: Inhibition of ligand binding, Ser. 5-HT6: concentration or dose not given beside the values; conditions: for Inhibition of ligand binding, Ser. 5-HT6: percent inhibition of specific binding; for inhibition at 1 µM: compounds screened at 1 μM, read-out: Inhibition of ligand binding, Ser. 5-HT6 (percent inhibition of specific binding)
T1 construct: expressed in transfected cells; host or cells: human HeLa cells
Source text: Receptor proteins were filtered and washed, the filters were then counted to determine [3H]LSD specifically bound. […] Biochemical assay results are presented as the percent inhibition of specific binding in Table 6.

[2] = molecular target: T2, human recombinant serotonin (5-Hydroxytryptamine) 5-HT2C receptor (Homo sapiens, UniProt P28335); assay: Serotonin 5-HT2C radioligand binding ([3H]Mesulergine); parameters: Inhibition of ligand binding, Ser. 5-HT2C: concentration or dose not given beside the values; conditions: for Inhibition of ligand binding, Ser. 5-HT2C: percent inhibition of specific binding; for inhibition at 1 µM: compounds screened at 1 μM, read-out: Inhibition of ligand binding, Ser. 5-HT2C (percent inhibition of specific binding)
T2 construct: expressed in transfected cells; host or cells: CHO-K1 cells
T2 sequence (P28335 33-458): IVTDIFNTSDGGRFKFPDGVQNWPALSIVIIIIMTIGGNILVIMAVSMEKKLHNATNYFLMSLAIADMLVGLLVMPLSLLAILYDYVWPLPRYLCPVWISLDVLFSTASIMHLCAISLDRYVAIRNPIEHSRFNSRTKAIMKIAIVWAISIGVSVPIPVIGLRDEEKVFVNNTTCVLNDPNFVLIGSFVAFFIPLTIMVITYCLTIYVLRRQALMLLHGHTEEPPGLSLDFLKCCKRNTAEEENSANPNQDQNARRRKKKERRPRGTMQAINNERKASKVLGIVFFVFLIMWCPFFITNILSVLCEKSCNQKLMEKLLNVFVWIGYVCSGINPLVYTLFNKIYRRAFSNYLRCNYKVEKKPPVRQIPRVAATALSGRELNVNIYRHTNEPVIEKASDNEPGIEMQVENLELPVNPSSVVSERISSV
Procedure: (§1) Compounds of the invention were incubated with 1 nM [^3H]Mesulergine for 60 minutes at 25° C. Non-specific binding was estimated in the presence of 1 μM Mianserin. Receptor proteins were filtered and washed, the filters were then counted to determine [^3H]Mesulergine specifically bound. […] Biochemical assay results are presented as the percent inhibition of specific binding in Table 6.

[3] = molecular target: T3, human recombinant adrenergic α2B receptor (Homo sapiens, UniProt P18089); assay: Adrenergic α2B radioligand binding ([3H]Rauwolscine); parameters: Inhibition of ligand binding, Adren. alpha2B: concentration or dose not given beside the values; conditions: for Inhibition of ligand binding, Adren. alpha2B: percent inhibition of specific binding; for inhibition at 1 µM: compounds screened at 1 μM, read-out: Inhibition of ligand binding, Adren. alpha2B (percent inhibition of specific binding)
T3 construct: expressed in transfected cells; host or cells: CHO-K1 cells
T3 sequence (P18089 1-450): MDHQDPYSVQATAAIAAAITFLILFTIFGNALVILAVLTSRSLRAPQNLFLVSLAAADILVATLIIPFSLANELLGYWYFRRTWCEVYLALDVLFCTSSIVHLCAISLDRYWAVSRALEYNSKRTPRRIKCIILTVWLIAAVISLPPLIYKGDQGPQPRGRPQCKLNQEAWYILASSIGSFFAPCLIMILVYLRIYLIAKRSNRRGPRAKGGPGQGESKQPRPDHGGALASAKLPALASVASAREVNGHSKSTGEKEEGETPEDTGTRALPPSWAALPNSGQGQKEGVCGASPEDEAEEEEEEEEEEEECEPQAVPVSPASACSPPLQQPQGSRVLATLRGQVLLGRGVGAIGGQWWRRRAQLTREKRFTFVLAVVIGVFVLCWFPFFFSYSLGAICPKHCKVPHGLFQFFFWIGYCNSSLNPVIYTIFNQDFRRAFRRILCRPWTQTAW
In short: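 Incubation ran 60 minutes at 25 °C in modified Tris-HCl buffer (50 mM, pH 7.4, 12.5 mM MgCl2, 1 mM EDTA, 0.2% BSA) using CHO-K1-expressed human receptor.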

[4] = molecular target: T4, human recombinant histamine H1 receptor (Homo sapiens, UniProt P35367); assay: Histamine H1 radioligand binding ([3H]Pyrilamine); conditions: for inhibition at 0.1 µM: 0.1 μM compound
T4 construct: expressed in transfected cells; host or cells: CHO cells
In short: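 CHO-expressed receptor in modified Tris-HCl buffer (50 mM, pH 7.4; 2 mM MgCl2, 100 mM NaCl, 250 mM sucrose); bound ligand measured after filtration and washing.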

[5] = molecular target: T5, human recombinant serotonin (5-Hydroxytryptamine) 5-HT2A receptor (Homo sapiens, UniProt P28223); assay: Serotonin 5-HT2A radioligand binding ([3H]Ketanserin); conditions: for Inhibition of ligand binding, Ser. 5-HT2A: percent inhibition of specific binding; for inhibition at 1 µM: read-out: Inhibition of ligand binding, Ser. 5-HT2A (percent inhibition of specific binding)
T5 construct: expressed in transfected cells; host or cells: CHO-K1 cells
Procedure: as §1, with “with 0.5” for “with 1”, “nM [^3H]Ketanserin” for “nM [^3H]Mesulergine”, “determine [^3H]Ketanserin” for “determine [^3H]Mesulergine”

[6] = molecular target: T6, human recombinant dopamine D2L receptor (Homo sapiens, UniProt P14416); assay: Dopamine D2L radioligand binding ([3H]Spiperone); conditions: for Inhibition of ligand binding, Dop. D2L: percent inhibition of specific binding; for inhibition at 1 µM: compounds screened at 1 μM, read-out: Inhibition of ligand binding, Dop. D2L (percent inhibition of specific binding)
T6 construct: expressed in transfected cells; host or cells: CHO cells
Procedure: Non-specific binding was estimated in the presence of 10 μM Haloperidol. Receptor proteins were filtered and washed, the filters were then counted to determine [^3H]Spiperone specifically bound. […] Biochemical assay results are presented as the percent inhibition of specific binding in Table 6.

[7] = 1 μM compound, […] [3H]Pyrilamine, read-out: Histamine Binding H1, percent inhibition of specific binding
[8] = percent inhibition of specific binding, screened at 1 μM, read-out: Inhibition of ligand binding, Hist. H1
[9] = compounds screened at 1 μM, read-out: Inhibition of ligand binding, Hist. H1 (percent inhibition of specific binding)
[10] = […] [3H]Pyrilamine, read-out: Histamine Binding H1, percent inhibition of specific binding

T5 sequence (P28223 whole entry): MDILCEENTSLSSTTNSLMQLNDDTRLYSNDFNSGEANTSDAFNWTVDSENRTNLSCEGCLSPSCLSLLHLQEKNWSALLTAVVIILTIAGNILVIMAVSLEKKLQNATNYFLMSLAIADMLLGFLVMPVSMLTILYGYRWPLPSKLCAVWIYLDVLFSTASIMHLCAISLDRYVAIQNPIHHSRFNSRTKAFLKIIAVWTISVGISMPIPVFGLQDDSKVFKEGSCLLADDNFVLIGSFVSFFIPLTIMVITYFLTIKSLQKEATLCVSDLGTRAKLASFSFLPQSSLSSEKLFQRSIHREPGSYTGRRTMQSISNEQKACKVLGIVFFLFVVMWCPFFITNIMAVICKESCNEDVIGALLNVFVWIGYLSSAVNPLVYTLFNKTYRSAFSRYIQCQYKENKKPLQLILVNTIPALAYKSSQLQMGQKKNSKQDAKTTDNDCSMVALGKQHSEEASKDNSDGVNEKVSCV
T4 sequence (P35367 whole entry): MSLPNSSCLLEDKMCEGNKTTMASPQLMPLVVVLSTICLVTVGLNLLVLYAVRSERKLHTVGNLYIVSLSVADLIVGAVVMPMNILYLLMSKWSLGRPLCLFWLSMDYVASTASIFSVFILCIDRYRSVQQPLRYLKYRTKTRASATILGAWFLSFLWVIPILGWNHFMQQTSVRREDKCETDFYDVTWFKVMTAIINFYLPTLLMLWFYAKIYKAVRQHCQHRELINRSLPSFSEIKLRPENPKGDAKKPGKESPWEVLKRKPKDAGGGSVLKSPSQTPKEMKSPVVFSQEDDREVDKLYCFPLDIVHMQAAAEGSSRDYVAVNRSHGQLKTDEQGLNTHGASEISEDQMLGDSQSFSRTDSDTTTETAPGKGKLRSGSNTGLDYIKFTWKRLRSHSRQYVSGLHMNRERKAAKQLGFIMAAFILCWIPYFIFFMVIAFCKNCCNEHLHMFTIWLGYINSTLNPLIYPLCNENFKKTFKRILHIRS
T1 sequence (P50406 whole entry): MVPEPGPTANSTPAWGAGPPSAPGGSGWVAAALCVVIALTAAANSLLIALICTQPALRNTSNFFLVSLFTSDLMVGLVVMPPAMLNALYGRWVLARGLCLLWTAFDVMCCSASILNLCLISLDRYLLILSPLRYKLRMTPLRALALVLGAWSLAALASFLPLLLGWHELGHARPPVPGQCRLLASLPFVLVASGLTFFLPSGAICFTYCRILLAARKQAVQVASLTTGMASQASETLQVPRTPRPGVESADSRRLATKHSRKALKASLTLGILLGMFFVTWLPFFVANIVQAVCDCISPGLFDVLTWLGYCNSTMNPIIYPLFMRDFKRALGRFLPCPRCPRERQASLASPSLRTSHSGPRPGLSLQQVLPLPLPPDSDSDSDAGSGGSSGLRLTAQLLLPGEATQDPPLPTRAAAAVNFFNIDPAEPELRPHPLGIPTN
T6 sequence (P14416 whole entry): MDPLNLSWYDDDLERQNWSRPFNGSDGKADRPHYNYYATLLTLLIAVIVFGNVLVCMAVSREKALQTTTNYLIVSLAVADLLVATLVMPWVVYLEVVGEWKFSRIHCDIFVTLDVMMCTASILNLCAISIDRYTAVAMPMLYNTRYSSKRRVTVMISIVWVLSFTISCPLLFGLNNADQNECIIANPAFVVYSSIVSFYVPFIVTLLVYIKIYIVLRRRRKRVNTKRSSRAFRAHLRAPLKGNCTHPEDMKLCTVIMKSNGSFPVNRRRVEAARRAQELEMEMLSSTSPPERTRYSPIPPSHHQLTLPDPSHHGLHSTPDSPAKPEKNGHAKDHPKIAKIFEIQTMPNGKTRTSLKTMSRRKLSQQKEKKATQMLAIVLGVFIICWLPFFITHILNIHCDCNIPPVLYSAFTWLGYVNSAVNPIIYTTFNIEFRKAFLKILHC

| Compound | Inhibition of ligand binding, Ser. 5-HT6 [1] | Inhibition of ligand binding, Ser. 5-HT2C [2] | Inhibition of ligand binding, Adren. alpha2B [3] | inhibition at 1 µM [4, 7] | inhibition at 1 µM [4, 8] | Inhibition of ligand binding, Ser. 5-HT2A [5] | Inhibition of ligand binding, Dop. D2L [6] | inhibition at 1 µM [1] | inhibition at 1 µM [2] | inhibition at 1 µM [3] | inhibition at 1 µM [4, 9] | inhibition at 1 µM [5] | inhibition at 1 µM [6] | inhibition at 0.03 µM ([4]; 0.03 μM compound, […] [3H]Pyrilamine, read-out: Histamine Binding H1, percent inhibition of specific binding) | inhibition at 0.1 µM [4, 10] | inhibition at 0.01 µM ([4]; 10 nM (0.01 μM) compound, […] [3H]Pyrilamine, read-out: Histamine Binding H1, percent inhibition of specific binding) | inhibition at 0.001 µM ([5]; read-out: Inhibition of ligand binding, Ser. 5-HT2A) |
| --- | --- | --- | --- | --- | --- | --- | --- | --- | --- | --- | --- | --- | --- | --- | --- | --- | --- |
| CCOC(=O)N1CCc2c(c3cc(Br)ccc3n2CCc2ccc(C)nc2)C1 [Compound 18, ethyl 8-bromo-3,4-dihydro-5-(2-(6-methylpyridin-3-yl)ethyl)-1H-pyrido[4,3-b]indole-2(5H)-carboxylate] | 6% | −14% | −8% | -14% | -14% | 5% | −7% | – | – | – | – | – | – | – | – | – | – |
| CC1CCN(C(=O)CCn2c3c(c4cc(Cl)ccc42)CN(C)CC3)CC1 [Compound 325, 3-(8-chloro-1,2,3,4-tetrahydro-2-methylpyrido[4,3-b]indol-5-yl)-1-(4-methylpiperidin-1-yl)propan-1-one] | 41% | 50% | 58% | – | 90% | 53% | −3% | – | – | – | – | – | – | – | – | – | – |
| CN1CCc2c(c3ncccc3n2CCc2ccncc2)C1 [Compound 482, 9-aza-2-methyl-5-(2-(pyridin-4-yl)ethyl)-2,3,4,5-tetrahydro-1H-pyrido[4,3-b]indole] | – | – | – | – | – | – | – | 4% | 17% | 10% | -2% | -7% | 7% | – | – | – | – |
| Cc1ccc2c(c1)c1c(n2CC(=O)N2CCOCC2)CCN(C)C1 [Compound 330, 2-(1,2,3,4-tetrahydro-2,8-dimethylpyrido[4,3-b]indol-5-yl)-1-morpholinoethanone] | 19% | 17% | 6% | – | 8% | 14% | −8% | – | – | – | – | – | – | – | – | – | – |
| Cc1ccc(CCn2c3c(c4cc(C)ccc42)CN(C)CC3)cc1 [Compound 25, 2,3,4,5-tetrahydro-2,8-dimethyl-5-(4-methylphenethyl)-1H-pyrido[4,3-b]indole] | 103% | 99% | 108% | 97% | 97% | 93% | 94% | – | – | – | – | – | – | 71% | 89% | – | – |
| Cc1ccc2c(c1)c1c(n2CCCc2ccc(C(F)(F)F)nc2)CCN(C)C1 [Compound 331, 5-(3-(6-(trifluoromethyl)pyridin-3-yl)propyl)-2,3,4,5-tetrahydro-2,8-dimethyl-1H-pyrido[4,3-b]indole] | 100% | 72% | 105% | – | 102% | 93% | 20% | – | – | – | – | – | – | – | – | – | – |
| Cc1ccc2c(c1)c1c(n2CCc2noc(-c3ccccc3)n2)CCN(C)C1 [Compound C4-4] | – | – | – | – | – | – | – | 103% | 98% | 102% | 101% | 100% | 46% | – | – | – | – |
| CN1CCc2c(c3ncccc3n2CCc2ccccn2)C1 [Compound 484, 9-aza-2-methyl-5-(2-(pyridin-2-yl)ethyl)-2,3,4,5-tetrahydro-1H-pyrido[4,3-b]indole] | – | – | – | – | – | – | – | 14% | 31% | 30% | 7% | 39% | 15% | – | – | – | – |
| Cc1ccc2c(c1)c1c(n2CCc2ccc(Cl)cc2)CCN(C)C1 [Compound 32, 5-(4-chlorophenethyl)-2,3,4,5-tetrahydro-2,8-dimethyl-1H-pyrido[4,3-b]indole] | 101% | 100% | 110% | 101% | 101% | 96% | 82% | – | – | – | – | – | – | – | 87% | 52% | – |
| COc1ccc(CCn2c3c(c4cc(C)ccc42)CN(C)CC3)cc1 [Compound 247] | 107% | 93% | 103% | 100% | 100% | – | 87% | – | – | – | – | – | – | – | – | – | 22% |
| CN1CCc2c(c3cc(Cl)ccc3n2CCC(=O)N2CCOCC2)C1 [Compound 328, 3-(8-chloro-1,2,3,4-tetrahydro-2-methylpyrido[4,3-b]indol-5-yl)-1-morpholinopropan-1-one] | 29% | 29% | 21% | – | 56% | 46% | 6% | – | – | – | – | – | – | – | – | – | – |
| CN1CCc2c(c3cc(Cl)ccc3n2CCc2noc(-c3ccccc3)n2)C1 [Compound C4-6] | – | – | – | – | – | – | – | 105% | 94% | 94% | 100% | 99% | 36% | – | – | – | – |
| CCOC(=O)c1ccc(CCn2c3c(c4cc(C)ccc42)CN(C)CC3)cn1 [Compound 275, ethyl 5-(2-(1,2,3,4-tetrahydro-2,8-dimethylpyrido[4,3-b]indol-5-yl)ethyl)pyridine-2-carboxylate] | 56% | 31% | 92% | – | 92% | 39% | 4% | – | – | – | – | – | – | – | – | – | – |
| Cc1ccc2c(c1)c1c(n2CCc2ccc(CO)nc2)CCN(C)C1 [Compound 267] | 69% | 76% | 100% | – | 96% | 73% | 21% | – | – | – | – | – | – | – | – | – | – |

Reference: patent US9096591B2, “Tetracyclic compounds” (Medivation Technologies, Inc., priority 2007, dated 2015)
